From ChEMBL document CHEMBL3885861, “Open TG-GATES”

Species: Rattus norvegicus
Experiment: Open TG-GATES - Regimen: Single
Format: toxicity, organism-based, Sprague-Dawley
Design: regimen Single, gender Male, age 6 weeks
Settings: in vivo, po, route gavage; for APTT / Bas / Eos / Fbg / Hb / Lym / MCH / MCHC / MCV / Mono / PT / Plat / RBC / Ret / WBC / Ht / Neu: tissue Blood; for KIDNEY_L / KIDNEY_R / KIDNEY_TOTAL: tissue Kidney; for LIVER: tissue Liver
[1] = 60 mg/kg, 24 h, tissue Plasma, dose level Low
[2] = 200 mg/kg, 3 h, dose level Middle
[3] = 200 mg/kg, 3 h, tissue Plasma, dose level Middle
[4] = 200 mg/kg, 6 h, dose level Middle
[5] = 200 mg/kg, 6 h, tissue Plasma, dose level Middle
[6] = 200 mg/kg, 9 h, dose level Middle
[7] = 200 mg/kg, 9 h, tissue Plasma, dose level Middle
[8] = 200 mg/kg, 24 h, dose level Middle
[9] = 200 mg/kg, 24 h, tissue Plasma, dose level Middle
[10] = 400 mg/kg, 3 h, dose level High
[11] = 400 mg/kg, 3 h, tissue Plasma, dose level High
[12] = 400 mg/kg, 6 h, dose level High
[13] = 400 mg/kg, 6 h, tissue Plasma, dose level High
[14] = 400 mg/kg, 9 h, dose level High
[15] = 400 mg/kg, 9 h, tissue Plasma, dose level High
[16] = 400 mg/kg, 24 h, dose level High
[17] = 400 mg/kg, 24 h, tissue Plasma, dose level High

CC(C)Cc1ccc(C(C)C(=O)O)cc1 (stereo not drawn) [IBUPROFEN]
TG [1]: 83.2 mg/dL
TP [1]: 5.5 g/dL
gamma-GTP [1]: 1.4 IU/L
TERMINAL_BW [2]: 203.6 g
APTT [2]: 21.7 s
Bas [2]: 0%
Eos [2]: 0.8%
Fbg [2]: 294 mg/dL
Hb [2]: 13 g/dL
Lym [2]: 78.6%
MCH [2]: 21.8 pg
MCHC [2]: 33.8%
MCV [2]: 64.6 fL
Mono [2]: 1.6%
PT [2]: 15.6 s
Plat [2]: 130.9 x10_4/uL
RBC [2]: 596.8 x10_4/ul
Ret [2]: 8.5%
WBC [2]: 68.9 x10_2/uL
KIDNEY_L [2]: 0.9 g
KIDNEY_R [2]: 0.9 g
KIDNEY_TOTAL [2]: 1.8 g
LIVER [2]: 9.4 g
ALP [3]: 1619.6 IU/L
ALT [3]: 50.2 IU/L
AST [3]: 86.4 IU/L
CRE [3]: 0.2 mg/dL
DBIL [3]: 0.002 mg/dL
GLC [3]: 180 mg/dL
IP [3]: 8.8 mg/dL
K [3]: 4 meq/L
LDH [3]: 307.4 IU/L
Na [3]: 141.6 meq/L
PL [3]: 125.2 mg/dL
RALB [3]: 3.1 g/dL
TBIL [3]: 0.022 mg/dL
TC [3]: 73 mg/dL
TG [3]: 64.2 mg/dL
TP [3]: 5.4 g/dL
gamma-GTP [3]: 1 IU/L
TERMINAL_BW [4]: 197.7 g
Bas [4]: 0%
Eos [4]: 1%
Fbg [4]: 277 mg/dL
Hb [4]: 13.4 g/dL
Ht [4]: 39.7%
Lym [4]: 74.2%
MCHC [4]: 33.7%
MCV [4]: 65.6 fL
Mono [4]: 2.6%
PT [4]: 15.5 s
Plat [4]: 122.9 x10_4/uL
RBC [4]: 605 x10_4/ul
Ret [4]: 8.2%
WBC [4]: 77.7 x10_2/uL
KIDNEY_L [4]: 0.9 g
KIDNEY_R [4]: 0.9 g
KIDNEY_TOTAL [4]: 1.8 g
LIVER [4]: 8.6 g
ALP [5]: 1495.2 IU/L
ALT [5]: 48.6 IU/L
AST [5]: 83.4 IU/L
CRE [5]: 0.2 mg/dL
DBIL [5]: 0.002 mg/dL
GLC [5]: 170.8 mg/dL
IP [5]: 9.6 mg/dL
K [5]: 4.3 meq/L
LDH [5]: 244.8 IU/L
Na [5]: 140.4 meq/L
PL [5]: 110.6 mg/dL
RALB [5]: 2.8 g/dL
TBIL [5]: 0.022 mg/dL
TC [5]: 63.8 mg/dL
TG [5]: 57.2 mg/dL
TP [5]: 5.2 g/dL
gamma-GTP [5]: 1 IU/L
TERMINAL_BW [6]: 200.1 g
APTT [6]: 21.5 s
Bas [6]: 0%
Eos [6]: 0.4%
Fbg [6]: 268.6 mg/dL
Hb [6]: 13.2 g/dL
Ht [6]: 39.7%
Lym [6]: 60.8%
MCHC [6]: 33.3%
MCV [6]: 63.6 fL
Mono [6]: 3%
Neu [6]: 35%
PT [6]: 15.8 s
Plat [6]: 113 x10_4/uL
RBC [6]: 624.6 x10_4/ul
Ret [6]: 7.8%
WBC [6]: 87.7 x10_2/uL
KIDNEY_L [6]: 0.9 g
KIDNEY_R [6]: 0.9 g
KIDNEY_TOTAL [6]: 1.8 g
LIVER [6]: 8.1 g
ALP [7]: 1296.6 IU/L
ALT [7]: 37.4 IU/L
AST [7]: 69.2 IU/L
CRE [7]: 0.2 mg/dL
DBIL [7]: 0.004 mg/dL
GLC [7]: 180.2 mg/dL
K [7]: 4.3 meq/L
LDH [7]: 226.2 IU/L
Na [7]: 140.6 meq/L
RALB [7]: 2.8 g/dL
TBIL [7]: 0.018 mg/dL
TC [7]: 60.6 mg/dL
TG [7]: 50.4 mg/dL
TP [7]: 5 g/dL
gamma-GTP [7]: 1.2 IU/L
TERMINAL_BW [8]: 212.3 g
APTT [8]: 21.5 s
Bas [8]: 0%
Eos [8]: 1%
Fbg [8]: 360 mg/dL
Hb [8]: 12.9 g/dL
Ht [8]: 37.8%
Lym [8]: 66.4%
MCH [8]: 21.7 pg
MCHC [8]: 34.3%
MCV [8]: 63.3 fL
Mono [8]: 4.2%
PT [8]: 16.2 s
Plat [8]: 111.7 x10_4/uL
RBC [8]: 596.8 x10_4/ul
Ret [8]: 7.5%
KIDNEY_L [8]: 0.9 g
KIDNEY_R [8]: 1 g
KIDNEY_TOTAL [8]: 1.9 g
ALP [9]: 1263 IU/L
ALT [9]: 41.4 IU/L
AST [9]: 69.2 IU/L
CRE [9]: 0.2 mg/dL
Ca [9]: 10.4 mg/dL
DBIL [9]: 0 mg/dL
GLC [9]: 182.8 mg/dL
IP [9]: 7.6 mg/dL
K [9]: 4.3 meq/L
LDH [9]: 210.6 IU/L
Na [9]: 141.8 meq/L
PL [9]: 145.2 mg/dL
RALB [9]: 2.7 g/dL
TBIL [9]: 0.002 mg/dL
TC [9]: 77 mg/dL
TG [9]: 141.2 mg/dL
TP [9]: 5 g/dL
gamma-GTP [9]: 1.4 IU/L
TERMINAL_BW [10]: 201.6 g
APTT [10]: 20.6 s
Bas [10]: 0%
Eos [10]: 0.8%
Fbg [10]: 281.4 mg/dL
Hb [10]: 13.2 g/dL
Ht [10]: 39.2%
Lym [10]: 77.2%
MCH [10]: 21.6 pg
MCHC [10]: 33.7%
MCV [10]: 64.2 fL
Mono [10]: 1.6%
Neu [10]: 19.8%
PT [10]: 15.7 s
Plat [10]: 118.2 x10_4/uL
RBC [10]: 610.8 x10_4/ul
Ret [10]: 8.1%
WBC [10]: 69.4 x10_2/uL
KIDNEY_L [10]: 0.9 g
KIDNEY_R [10]: 0.9 g
KIDNEY_TOTAL [10]: 1.8 g
LIVER [10]: 8.7 g
ALP [11]: 1604.2 IU/L
ALT [11]: 52.2 IU/L
AST [11]: 80.4 IU/L
CRE [11]: 0.2 mg/dL
DBIL [11]: 0 mg/dL
GLC [11]: 162 mg/dL
IP [11]: 9.7 mg/dL
K [11]: 4 meq/L
LDH [11]: 264.8 IU/L
Na [11]: 140.6 meq/L
RALB [11]: 2.7 g/dL
TBIL [11]: 0.026 mg/dL
TC [11]: 69.8 mg/dL
TG [11]: 37.8 mg/dL
TP [11]: 5.3 g/dL
gamma-GTP [11]: 1.4 IU/L
TERMINAL_BW [12]: 200.3 g
APTT [12]: 21 s
Bas [12]: 0%
Eos [12]: 1%
Fbg [12]: 283.4 mg/dL
Hb [12]: 13.2 g/dL
Ht [12]: 39.3%
Lym [12]: 72.2%
MCH [12]: 21.5 pg
MCHC [12]: 33.7%
MCV [12]: 63.9 fL
Mono [12]: 2.6%
Neu [12]: 23.4%
PT [12]: 15.5 s
Plat [12]: 116.4 x10_4/uL
RBC [12]: 614.8 x10_4/ul
Ret [12]: 8.2%
WBC [12]: 67.5 x10_2/uL
KIDNEY_L [12]: 0.9 g
KIDNEY_R [12]: 0.9 g
KIDNEY_TOTAL [12]: 1.8 g
LIVER [12]: 8.2 g
ALP [13]: 1535.4 IU/L
ALT [13]: 48.8 IU/L
AST [13]: 76 IU/L
CRE [13]: 0.2 mg/dL
DBIL [13]: 0.006 mg/dL
GLC [13]: 172.8 mg/dL
IP [13]: 9.9 mg/dL
K [13]: 4.2 meq/L
LDH [13]: 246.4 IU/L
Na [13]: 140.2 meq/L
RALB [13]: 2.9 g/dL
TBIL [13]: 0.016 mg/dL
TC [13]: 62.6 mg/dL
TG [13]: 51.8 mg/dL
TP [13]: 5.3 g/dL
gamma-GTP [13]: 1 IU/L
TERMINAL_BW [14]: 204.9 g
APTT [14]: 21.6 s
Bas [14]: 0%
Eos [14]: 0.6%
Fbg [14]: 261.4 mg/dL
Ht [14]: 39.8%
Lym [14]: 63.4%
MCH [14]: 21.3 pg
MCHC [14]: 33.3%
MCV [14]: 63.8 fL
Mono [14]: 3%
Neu [14]: 32.8%
PT [14]: 15.6 s
Plat [14]: 120.1 x10_4/uL
RBC [14]: 624.4 x10_4/ul
Ret [14]: 7.8%
WBC [14]: 76.3 x10_2/uL
KIDNEY_L [14]: 0.9 g
KIDNEY_R [14]: 0.9 g
KIDNEY_TOTAL [14]: 1.8 g
LIVER [14]: 8.2 g
ALP [15]: 1623.8 IU/L
ALT [15]: 43.4 IU/L
AST [15]: 73 IU/L
CRE [15]: 0.2 mg/dL
DBIL [15]: 0.006 mg/dL
GLC [15]: 180.4 mg/dL
IP [15]: 10.2 mg/dL
K [15]: 4.1 meq/L
LDH [15]: 257 IU/L
Na [15]: 140.8 meq/L
PL [15]: 97.4 mg/dL
RALB [15]: 2.8 g/dL
TBIL [15]: 0.016 mg/dL
TC [15]: 53.6 mg/dL
TG [15]: 46.4 mg/dL
TP [15]: 5 g/dL
gamma-GTP [15]: 1 IU/L
TERMINAL_BW [16]: 209.2 g
APTT [16]: 21.1 s
Bas [16]: 0%
Eos [16]: 0.6%
Fbg [16]: 375.8 mg/dL
Hb [16]: 13.1 g/dL
Ht [16]: 38.2%
Lym [16]: 57.2%
MCHC [16]: 34.3%
MCV [16]: 61.7 fL
Mono [16]: 4.2%
Neu [16]: 36.2%
PT [16]: 16.1 s
RBC [16]: 619.4 x10_4/ul
Ret [16]: 6.8%
KIDNEY_L [16]: 0.9 g
KIDNEY_R [16]: 1 g
KIDNEY_TOTAL [16]: 1.9 g
LIVER [16]: 10.1 g
ALP [17]: 1531.4 IU/L
ALT [17]: 44 IU/L
AST [17]: 72.6 IU/L
CRE [17]: 0.2 mg/dL
DBIL [17]: 0.004 mg/dL
GLC [17]: 175.2 mg/dL
IP [17]: 7.5 mg/dL
K [17]: 4.3 meq/L
LDH [17]: 212.4 IU/L
Na [17]: 141 meq/L
PL [17]: 129.4 mg/dL
RALB [17]: 2.7 g/dL
TBIL [17]: 0.002 mg/dL
TG [17]: 104.2 mg/dL
TP [17]: 4.9 g/dL
gamma-GTP [17]: 1 IU/L
